From patent US7592336B2, “Hepatitis C virus inhibitors” (Bristol-Myers Squibb Company, priority 2005, dated 2009)

How the values were obtained:
[1] = target: T1, HCV NS3/4A protease complex, BMS strain (UniProt P27958, species not given/STRAIN_BMS); assay: FRET peptide assay to monitor HCV NS3/4A proteolytic activity (BMS strain); format: biochemical, HCV genotype 1a; settings: NS3/4A BMS strain; read-out: Activity Range (IC50)
T1 construct: said of H77 and J4L6S, not expressly of BMS; fused on or other part: A three-lysine solubilising tail at the NS4A C-terminus and purification on Ni-NTA are described for the H77 and J4L6S constructs
Description: HCV NS3 protease complexes, derived from the BMS strain, H77 strain or J4L6S strain, were generated, as described below. These purified recombinant proteins were generated for use in a homogeneous assay (see below) to provide an indication of how effective compounds of the present disclosure would be in inhibiting HCV NS3 proteolytic activity.
Serum from an HCV-infected patient was obtained from Dr. T. Wright, San Francisco Hospital. An engineered full-length cDNA (compliment deoxyribonucleic acid) template of the HCV genome (BMS strain) was constructed from DNA fragments obtained by reverse transcription-PCR (RT-PCR) of serum RNA (ribonucleic acid) and using primers selected on the basis of homology between other genotype 1a strains. From the determination of the entire genome sequence, a genotype 1a was assigned to the HCV isolate according to the classification of Simmonds et al. (See P Simmonds, K A Rose, S Graham, S W Chan, F McOmish, B C Dow, E A Follett, P L Yap and H Marsden, J. Clin. Microbiol., 31(6), 1493-1503 (1993)). […] The infectious clones, H77 (1a genotype) and J4L6S (1b genotype) were obtained from R. Purcell (NIH) and the sequences are published in Genbank (AAB67036, see Yanagi, M., Purcell, R. H., Emerson, S. U. and Bukh, J. Proc. Natl. Acad. Sci. U.S.A. 94(16), 8738-8743 (1997); AF054247, see Yanagi, M., St Claire, M., Shapiro, M., Emerson, S. U., Purcell, R. H. and Bukh, J, Virology 244 (1), 161-172. (1998)).
NS3/4A protease complex-containing fractions were pooled and loaded on a desalting column Superdex-S200 pre-equilibrated with buffer D (25 mM HEPES, pH 7.5, 20% glycerol, 300 mM NaCl, 0.2% Triton X-100, 10 mM βME). Sample was loaded at a flow rate of 1 mL/min. NS3/4A protease complex-containing fractions were pooled and concentrated to approximately 0.5 mg/ml. The purity of the NS3/4A protease complexes, derived from the BMS, H77 and J4L6S strains, were judged to be greater than 90% by SDS-PAGE and mass spectrometry analyses. The enzyme was stored at −80° C., thawed on ice and diluted prior to use in assay buffer.
The purpose of this in vitro assay was to measure the inhibition of HCV NS3 protease complexes, derived from the BMS strain, H77 strain or J4L6S strain, as described above, by compounds of the present disclosure. This assay provides an indication of how effective compounds of the present disclosure would be in inhibiting HCV NS3 proteolytic activity.
In order to monitor HCV NS3/4A protease activity, an NS3/4A peptide substrate was used. The substrate was RET S1 (Resonance Energy Transfer Depsipeptide Substrate; AnaSpec, Inc. cat #22991) (FRET peptide), described by Taliani et al. in Anal. Biochem. 240(2):60-67 (1996). The sequence of this peptide is loosely based on the NS4A/NS4B natural cleavage site for the HCV NS3 protease except there is an ester linkage rather than an amide bond at the cleavage site. The peptide also contains a fluorescence donor, EDANS, near one end of the peptide and an acceptor, DABCYL, near the other end. The fluorescence of the peptide is quenched by […] resonance energy transfer (RET) between the donor and the acceptor, but as the NS3 protease cleaves the peptide the products are released from RET quenching and the fluorescence of the donor becomes apparent.
The peptide substrate was incubated with one of the three recombinant NS3/4A protease complexes, in the absence or presence of a compound of the present disclosure. The inhibitory effects of a compound were determined by monitoring the formation of fluorescent reaction product in real time using a Cytofluor Series 4000.
Assay buffer: 50 mM HEPES, pH 7.5; 0.15M NaCl; 0.1% Triton; 15% Glycerol; 10 mM βME. Substrate: 2 μM final concentration (from a 2 mM stock solution in DMSO stored at −20° C.). HCV NS3/4A protease type 1a (1b), 2-3 nM final concentration (from a 5 μM stock solution in 25 mM HEPES, pH 7.5, 20% glycerol, 300 mM NaCl, 0.2% Triton-X100, 10 mM βME). […]

[2] = tested on: HCV replicon in HUH-7 cells; assay: HCV replicon FRET assay; format: cell-based, HCV strain 1b; settings: Hepatitis C virus, Huh-7; HCV replicon cell assay; read-out: Activity Range (EC50)
Description: An HCV replicon whole cell system was established as described by Lohmann V, Korner F, Koch J, Herian U, Theilmann L, Bartenschlager R., Science 285(5424):110-3 (1999). This system enabled us to evaluate the effects of our HCV Protease compounds on HCV RNA replication. Briefly, using the HCV strain 1b sequence described in the Lohmann paper (Assession number: AJ238799), an HCV cDNA was synthesized by Operon Technologies, Inc. (Alameda, Calif.), and the full-length replicon was then assembled in plasmid pGem9zf(+) (Promega, Madison, Wis.) using standard molecular biology techniques. The replicon consists of (i) the HCV 5′ UTR fused to the first 12 amino acids of the capsid protein, (ii) the neomycin phosphotransferase gene (neo), (iii) the IRES from encephalomyocarditis virus (EMCV), and (iv) HCV NS3 to NS5B genes and the HCV 3′ UTR. Plasmid DNAs were linearized with ScaI and RNA transcripts were synthesized in vitro using the T7 MegaScript transcription kit (Ambion, Austin, Tex.) according to manufacturer's directions. In vitro transcripts of the cDNA were transfected into the human hepatoma cell line, HUH-7. […] Resulting cell lines were characterized for positive and negative strand RNA production and protein production over time.
The HCV replicon FRET assay was developed to monitor the inhibitory effects of compounds described in the disclosure on HCV viral replication. HUH-7 cells, constitutively expressing the HCV replicon, were grown in Dulbecco's Modified Eagle Media (DMEM) (Gibco-BRL) containing 10% Fetal calf serum (FCS) (Sigma) and 1 mg/ml G418 (Gibco-BRL). Cells were seeded the night before (1.5×10^4 cells/well) in 96-well tissue-culture sterile plates. Compound and no compound controls were prepared in DMEM containing 4% FCS, 1:100 Penicillin/Streptomysin (Gibco-BRL), 1:100 L-glutamine and 5% DMSO in the dilution plate (0.5% DMSO final concentration in the assay). Compound/DMSO mixes were added to the cells and incubated for 4 days at 37° C. After 4 days, cells were first assessed for cytotoxicity using alamar Blue (Trek Diagnotstic Systems) for a CC50 reading. The toxicity of compound (CC50) was determined by adding 1/10th volume of alamar Blue to the media incubating the cells. After 4 h, the fluorescence signal from each well was read, with an excitation wavelength at 530 nm and an emission wavelength of 580 nm, using the Cytofluor Series 4000 (Perspective Biosystems). Plates were then rinsed thoroughly with Phosphate-Buffered Saline (PBS) (3 times 150 μl). The cells were lysed with 25 μl of a lysis assay reagent containing an HCV protease substrate (5× cell Luciferase cell culture lysis reagent (Promega #E153A) diluted to 1× with distilled water, NaCl added to 150 mM final, the FRET peptide substrate (as described for the enzyme assay above) diluted to 10 μM final from a 2 mM stock in 100% DMSO. […]. The plate was then placed into the Cytofluor 4000 instrument which had been set to 340 nm excitation/490 nm emission, automatic mode for 21 cycles and the plate read in a kinetic mode. EC50 determinations were carried out as described for the IC50 determinations.

T1 sequence (P27958 1027-1657, change not shown, one chain of several): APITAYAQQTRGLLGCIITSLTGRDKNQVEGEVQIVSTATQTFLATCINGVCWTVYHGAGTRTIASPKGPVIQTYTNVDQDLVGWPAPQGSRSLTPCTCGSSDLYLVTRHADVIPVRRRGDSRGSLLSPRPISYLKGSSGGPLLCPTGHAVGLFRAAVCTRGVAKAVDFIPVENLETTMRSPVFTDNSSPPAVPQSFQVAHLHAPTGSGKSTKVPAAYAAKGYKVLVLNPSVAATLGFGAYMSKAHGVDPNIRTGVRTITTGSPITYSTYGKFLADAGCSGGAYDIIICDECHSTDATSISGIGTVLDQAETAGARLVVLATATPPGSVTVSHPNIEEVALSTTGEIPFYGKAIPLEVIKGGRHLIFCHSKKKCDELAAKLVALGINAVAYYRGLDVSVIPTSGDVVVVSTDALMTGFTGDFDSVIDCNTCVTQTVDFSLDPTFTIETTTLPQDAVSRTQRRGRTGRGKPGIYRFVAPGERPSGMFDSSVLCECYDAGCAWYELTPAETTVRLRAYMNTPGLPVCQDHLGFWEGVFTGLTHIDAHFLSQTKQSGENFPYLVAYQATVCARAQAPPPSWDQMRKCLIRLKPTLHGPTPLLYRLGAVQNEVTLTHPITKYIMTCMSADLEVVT

Row | SMILES | IC50 [1] [µM] | EC50 [2] [µM]
1 | C=C[C@@H]1C[C@]1(NC(=O)[C@@H]1C[C@@H](c2ccccc2)CN1C(=O)[C@@H](NC(=O)OC(C)(C)C)C(C)(C)C)C(=O)NS(=O)(=O)C1CC1 [Compound 1] | 0.1 to 1 | 1 to 10
2 | C=C[C@@H]1C[C@]1(NC(=O)[C@@H]1C[C@@H](Cc2ccccc2)CN1C(=O)[C@@H](NC(=O)OC(C)(C)C)C(C)(C)C)C(=O)NS(=O)(=O)C1CC1 [Compound 2] | > 1 | > 10
3 | C=C[C@@H]1C[C@]1(NC(=O)[C@@H]1C[C@@](O)(c2ccccc2)CN1C(=O)[C@@H](NC(=O)OC(C)(C)C)C(C)(C)C)C(=O)NS(=O)(=O)C1CC1 [Compound 4] | 0.1 to 1 | 1 to 10
4 | C=C[C@@H]1C[C@]1(NC(=O)[C@@H]1C[C@@](O)(c2ccc3ccccc3c2)CN1C(=O)[C@@H](NC(=O)OC(C)(C)C)C(C)(C)C)C(=O)NS(=O)(=O)C1CC1 [Compound 5] | 0.001 to 0.1 | 0.01 to 1
5 | C=C[C@@H]1C[C@]1(NC(=O)[C@@H]1C[C@@](O)(c2ccc(F)cc2)CN1C(=O)[C@@H](NC(=O)OC(C)(C)C)C(C)(C)C)C(=O)NS(=O)(=O)C1CC1 [Compound 6] | 0.1 to 1 | 1 to 10
6 | C=C[C@@H]1C[C@]1(NC(=O)[C@@H]1C[C@@](O)(c2ccc(OC)cc2)CN1C(=O)[C@@H](NC(=O)OC(C)(C)C)C(C)(C)C)C(=O)NS(=O)(=O)C1CC1 [Compound 7] | 0.1 to 1 | 1 to 10
7 | C=C[C@@H]1C[C@]1(NC(=O)[C@@H]1C[C@@](O)(c2cccc(-c3ccc(OC)cc3)c2)CN1C(=O)[C@@H](NC(=O)OC(C)(C)C)C(C)(C)C)C(=O)NS(=O)(=O)C1CC1 [Compound 8] | 0.1 to 1 | 1 to 10
8 | C=CC[C@]1(O)C[C@@H](C(=O)N[C@]2(C(=O)NS(=O)(=O)C3CC3)C[C@H]2C=C)N(C(=O)[C@@H](NC(=O)OC(C)(C)C)C(C)(C)C)C1 [Compound 9] | > 1 | > 10
9 | C=C[C@@H]1C[C@]1(NC(=O)[C@@H]1C[C@@](O)(c2cccc(F)c2)CN1C(=O)[C@@H](NC(=O)OC(C)(C)C)C(C)(C)C)C(=O)NS(=O)(=O)C1CC1 [Compound 10] | 0.001 to 0.1 | 1 to 10
10 | C=C[C@@H]1C[C@]1(NC(=O)[C@@H]1C[C@@](O)(c2cccc(OC)c2)CN1C(=O)[C@@H](NC(=O)OC(C)(C)C)C(C)(C)C)C(=O)NS(=O)(=O)C1CC1 [Compound 11] | 0.001 to 0.1 | 1 to 10
11 | C=C[C@@H]1C[C@]1(NC(=O)[C@@H]1C[C@@](O)(c2cccc(Cl)c2)CN1C(=O)[C@@H](NC(=O)OC(C)(C)C)C(C)(C)C)C(=O)NS(=O)(=O)C1CC1 [Compound 12] | 0.001 to 0.1 | 1 to 10
12 | C=C[C@@H]1C[C@]1(NC(=O)[C@@H]1C[C@@](O)(c2cccc(C)c2)CN1C(=O)[C@@H](NC(=O)OC(C)(C)C)C(C)(C)C)C(=O)NS(=O)(=O)C1CC1 [Compound 13] | 0.001 to 0.1 | 1 to 10
13 | C=C[C@@H]1C[C@]1(NC(=O)[C@@H]1C[C@@](O)(c2cccc(C(C)C)c2)CN1C(=O)[C@@H](NC(=O)OC(C)(C)C)C(C)(C)C)C(=O)NS(=O)(=O)C1CC1 [Compound 14] | 0.1 to 1 | 1 to 10
14 | C=C[C@@H]1C[C@]1(NC(=O)[C@@H]1C[C@@](O)(c2cccc(OC(C)C)c2)CN1C(=O)[C@@H](NC(=O)OC(C)(C)C)C(C)(C)C)C(=O)NS(=O)(=O)C1CC1 [Compound 15] | 0.1 to 1 | 1 to 10
15 | C=C[C@@H]1C[C@]1(NC(=O)[C@@H]1C[C@@](O)(c2cccc(N(C)C)c2)CN1C(=O)[C@@H](NC(=O)OC(C)(C)C)C(C)(C)C)C(=O)NS(=O)(=O)C1CC1 [Compound 16] | 0.1 to 1 | > 10
16 | C=C[C@@H]1C[C@]1(NC(=O)[C@@H]1C[C@@](O)(c2cccc(CN3CCCC3)c2)CN1C(=O)[C@@H](NC(=O)OC(C)(C)C)C(C)(C)C)C(=O)NS(=O)(=O)C1CC1 [Compound 17] | 0.1 to 1 | > 10
17 | C=C[C@@H]1C[C@]1(NC(=O)[C@@H]1C[C@@](O)(c2cccc(CN3CCCCC3)c2)CN1C(=O)[C@@H](NC(=O)OC(C)(C)C)C(C)(C)C)C(=O)NS(=O)(=O)C1CC1 [Compound 18] | 0.1 to 1 | > 10
18 | C=C[C@@H]1C[C@]1(NC(=O)[C@@H]1C[C@@](O)(c2cccc(CN3CCOCC3)c2)CN1C(=O)[C@@H](NC(=O)OC(C)(C)C)C(C)(C)C)C(=O)NS(=O)(=O)C1CC1 [Compound 19] | 0.1 to 1 | > 10
19 | C=C[C@@H]1C[C@]1(NC(=O)[C@@H]1C[C@@](O)(c2ccccc2CN2CCOCC2)CN1C(=O)[C@@H](NC(=O)OC(C)(C)C)C(C)(C)C)C(=O)NS(=O)(=O)C1CC1 [Compound 20] | 0.1 to 1 | 1 to 10
20 | C=C[C@@H]1C[C@]1(NC(=O)[C@@H]1C[C@@](O)(c2cc(C)cc(C)c2)CN1C(=O)[C@@H](NC(=O)OC(C)(C)C)C(C)(C)C)C(=O)NS(=O)(=O)C1CC1 [Compound 21] | 0.001 to 0.1 | 1 to 10
